Read-outs that look alike come from different tables or passages of the source.
How the values were obtained:
PGE2 = PGE2 assay in LPS-stimulated SCC-9 cells; type: cell-based; conditions: LC-MS/MS
[1] = type: in vivo, C57BL/6 mice; conditions: for bioavailability: C57BL/6, mouse, whole blood, ip, 500 mg/kg; for AUC0-t /Dose / Cmax/Dose: blood
[2] = Saliva levels after intraperitoneal administration of ATB; type: in vivo, C57BL/6 mice; conditions: for detection in mouse saliva: i.p. 500 mg/kg ATB q.d., 7 consecutive days
[3] = tested on: salivary gland adenoid cystic carcinoma cells (ACC-M); conditions: in vitro; cited from earlier work
Stability in saliva = type: in vitro ADME
Cal-27 = test: MTT anti-proliferation assay in Cal-27 cells; type: cell-based; conditions: in words
[4] = Pharmacokinetics after i.v. administration of ATB, blood; type: in vivo, C57BL/6 mice; conditions: 500 mg/kg ATB IV, matrine dosage 2.79 mg/kg
[5] = Pharmacokinetics after oral administration of ATB or pure KACs, blood; type: in vivo, C57BL/6 mice; conditions: for AUC0-t /Dose / Cmax/Dose: blood
[6] = 500 mg/kg ATB IP Day 1, matrine dosage 2.79 mg/kg
[7] = 500 mg/kg ATB IP Day 7, matrine dosage 2.79 mg/kg
[8] = saliva, 500 mg/kg ATB IP Day 7, matrine dosage 2.79 mg/kg
[9] = 5 mg/kg KAC Oral (pure compound), matrine dosage 5.00 mg/kg
[10] = 100 mg/kg ATB Oral, matrine dosage 0.56 mg/kg
[11] = 500 mg/kg ATB Oral, matrine dosage 2.79 mg/kg
[12] = 4000 mg/kg ATB Oral, matrine dosage 22.32 mg/kg

CC1=C2C(=O)O[C@@H](c3ccoc3)[C@]2(C)CCC1 [Fraxinellone, fraxinellone]
inhibition of PGE2 production (PGE2; 25 μM): significant inhibition | bioavailability [1]: 2.8 ± 2.1% | detection in mouse saliva [2]: no Frax or Maac detected

Oc1ccc2c(c1)OCC1c3cc4c(cc3OC21)OCO4 (stereo not shown) [Maackiain, maackiain]
bioavailability [1]: 4.8 ± 4.2% | detection in mouse saliva [2]: no Frax or Maac detected

O=C1CCC[C@@H]2[C@H]3CCCN4CCC[C@@H](CN12)[C@@H]34 [Matrine, matrine]
inhibition of PGE2 production (PGE2; 50 μM): significant inhibition | effect on adhesion and invasion properties of ACC-M cells [3]: inhibit | bioavailability [1]: 28.9 ± 11% | AUC0-t /Dose [1, 6]: 528.7 ± 200.9 (hr*ng/mL)/(mg/kg) | Cmax/Dose [1, 6]: 292.4 ± 147.8 (ng/mL)/(mg/kg) | AUC0-t /Dose [1, 7]: 592.0 ± 434.7 (hr*ng/mL)/(mg/kg) | Cmax/Dose [1, 7]: 197.8 ± 144.1 (ng/mL)/(mg/kg) | accumulation in the body after multiple-dose administration ([1]; in words, Fig 5): no accumulation | stability in saliva (Stability in saliva; room temperature): 4 h | stability in saliva (Stability in saliva; −20 °C): 170 h | inhibition effect against Cal-27 cells (Cal-27): moderate inhibition effect | AUC0-t /Dose [4]: 1830.0 ± 1241.2 (hr*ng/mL)/(mg/kg) | Cmax/Dose [4]: 1408.3 ± 835.8 (ng/mL)/(mg/kg) | AUC(0-t) ([2]; C57BL/6, mouse, saliva, ip, 500 mg/kg): 2680 ± 1660 ng·h/mL | detection in mouse saliva [2]: detected | AUC0-t /Dose [2, 8]: 952.8 ± 594.4 (hr*ng/mL)/(mg/kg) | Cmax/Dose [2, 8]: 1533.9 ± 823.5 (ng/mL)/(mg/kg) | AUC0-t /Dose [5, 9]: 46.9 ± 13.0 (hr*ng/mL)/(mg/kg) | Cmax/Dose [5, 9]: 22.0 ± 7.4 (ng/mL)/(mg/kg) | AUC0-t /Dose [5, 10]: 58.5 ± 32.7 (hr*ng/mL)/(mg/kg) | Cmax/Dose [5, 10]: 25.9 ± 20.5 (ng/mL)/(mg/kg) | AUC0-t /Dose [5, 11]: 43.1 ± 21.3 (hr*ng/mL)/(mg/kg) | Cmax/Dose [5, 11]: 19.3 ± 10.2 (ng/mL)/(mg/kg) | AUC0-t /Dose [5, 12]: 164.1 ± 60.0 (hr*ng/mL)/(mg/kg) | Cmax/Dose [5, 12]: 31.8 ± 10.6 (ng/mL)/(mg/kg) | increase of dose-normalized AUC ([5]; oral ATB, from 500 mg/kg to 4000 mg/kg): ~ 400%
